Experimental data published in patent publication US20050239757A1, “Hormone treatment of macular degeneration” (priority 2004, published 2005).
Values joined by “and” are separate entries in the source; they are usually repeats but may differ in a detail not shown here. Identical values can stand only once.

B1: myelin basic protein (protein, UniProt P02686 1-304, looked up)
Myelin basic protein: MGNHAGKRELNAEKASTNSETNRGESEKKRNLGELSRTTSEDNEVFGEADANQNNGTSSQDTAVTDSKRTADPKNAWQDAHPADPGSRPHLIRLFSRDAPGREDNTFKDRPSESDELQTIQEDSAATSESLDVMASQKRPSQRHGSKYLATASTMDHARHGFLPRHRDTGILDSIGRFFGGDRGAPKRGSGKDSHHPARTAHYGSLPQKSHGRTQDENPVVHFFKNIVTPRTPPPSQGKGRGLSLSRFSWGAEGQRPGFGYGGRASDYKSAHKGFKGVDAQGTLSKIFKLGGRDSRSGSPMARR

Columns and labels:
[1] = test system: macular degeneration; assay: Clinical case: sublingual progesterone in a patient with macular degeneration; type: in vivo, human
Experimental: An adult human presented with macular degeneration. They had visual acuity of 20/200 in each eye. After the use of sublingual progesterone, one application, their vision improved to 20/100 and 20/40. […] They were evaluated for hormone allergy therapy by assessing their anti-hormone antibodies and found to have elevated levels of IgE, IgG, and IgM antibodies to progesterone.
The subject then received progesterone 1:10 sublingual drops which they continue to use.

[2] = test system: serum anti-estrogen IgG antibodies; assay: Competition ELISA: absorption of serum IgG anti-estrogen with specific and non-specific antigens; type: binding, human; conditions: for Absorption of serum IgG antibodies, in words: antigen added to the liquid phase; for Inhibition of anti-estrogen binding to estrogen (IgG), range over samples: antigen in liquid phase, Table 2; for Percent inhibition after absorption (IgG) / Serum anti-estrogen IgG level after absorption: antigen 250 μg/mL; for Serum anti-estrogen IgG level after absorption: optical density at 405 nm
Experimental: (§1) Enzyme-linked immunosorbent assay (ELISA) was used for testing antibodies against estrogen and progesterone in the sera of patients with premenstrual asthma and with control subjects. […] Plates were incubated overnight at 4° C. and then washed three times with […] of Tris-buffered saline (TBS) containing 0.05% Tween 20, pH 7.4. […] Plates were incubated for 2 h (for IgG and IgM) and overnight (for IgE), and then washed four times with PBS-Tween 20. Alkaline-phosphatase-conjugated goat anti-human IgG, IgM or IgE F(ab′)2 fragment at optimal dilution of 1:700 (IgG); 1:500 (IgM) and 1:250 (IgE) was added to corresponding wells. The plates were then incubated for an additional 2 h at room temperature. After washing five times with TBS-Tween buffer, the enzyme reaction was started by adding 100 μl of para-nitrophenylphosphate in 0.1 mL of diethanolamine buffer (1 mg/ml) containing 1 mM MgCl2 and sodium azide, pH 9.8. The reaction was stopped 45 minutes later with 50 μl of 1 N NaOH. The optical density was read at 405 nm (OD405) with a microtiter reader.
(§2) 100 μl of serum diluent buffer was added to all wells. […] After a 60-minute incubation, 100 μl serum anti-estrogen or anti-progesterone was added to all wells. […] Results were calculated as a percentage of inhibition in antigen-antibody reaction.
(§3) To examine whether antibodies to estrogen or progesterone are specific or cross-reactive, competition ELISA was performed by adding specific and non-specific antigens in liquid phase and examined prevention of serum antibody binding to the antigen in solid phase. […] This cross-reaction between estrogen and progesterone antibodies may be due to structural similarities between these two hormones.

[3] = test system: serum anti-estrogen IgE antibodies; assay: Competition ELISA: absorption of serum IgE anti-estrogen with specific and non-specific antigens; type: binding, human; conditions: for Absorption of serum IgE antibodies, in words: antigen added to the liquid phase; for Inhibition of IgE anti-estrogen binding, range over samples: antigen in liquid phase, summary of Table 3; for Percent inhibition after absorption (IgE) / Serum anti-estrogen IgE level after absorption: antigen 250 μg/mL; for Serum anti-estrogen IgE level after absorption: optical density at 405 nm
Experimental: as §1, §2, §3

[4] = serum sample 1, before absorption 1.83
[5] = serum sample 2, before absorption 1.25
[6] = serum sample 3, before absorption 0.76
[7] = serum sample 1, before absorption 2.15
[8] = serum sample 2, before absorption 1.66
[9] = serum sample 3, before absorption 1.34

Molecule	Visual acuity after treatment ([1]; adult human female, sublingual, one application, baseline 20/200 in each eye)	Ophthalmologist's assessment ([1]; return visit two weeks later, as reported by the patient)	Absorption of serum IgG antibodies, in words [2]	Inhibition of anti-estrogen binding to estrogen (IgG), range over samples [2]	Percent inhibition after absorption (IgG) ([2]; serum sample 1)	Serum anti-estrogen IgG level after absorption [2, 4]	Percent inhibition after absorption (IgG) ([2]; serum sample 2)	Serum anti-estrogen IgG level after absorption [2, 5]	Percent inhibition after absorption (IgG) ([2]; serum sample 3)	Serum anti-estrogen IgG level after absorption [2, 6]	Absorption of serum IgE antibodies, in words [3]	Inhibition of IgE anti-estrogen binding, range over samples [3]	Percent inhibition after absorption (IgE) ([3]; serum sample 1)	Serum anti-estrogen IgE level after absorption [3, 7]	Percent inhibition after absorption (IgE) ([3]; serum sample 2)	Serum anti-estrogen IgE level after absorption [3, 8]	Percent inhibition after absorption (IgE) ([3]; serum sample 3)	Serum anti-estrogen IgE level after absorption [3, 9]
CC(=O)[C@H]1CC[C@H]2[C@@H]3CCC4=CC(=O)CC[C@]4(C)[C@H]3CC[C@]12C [progesterone]	20/100 and 20/40	remarkably improved	–	–	–	–	–	–	–	–	–	–	–	–	–	–	–	–
En: Estrogen (estradiol) bound to bovine serum albumin, purchased from Sigma; specific antigen in competition ELISA	–	–	significantly absorbed	52-67%	(67%)	0.61	(59%)	0.52	(52%)	0.37	significantly absorbed	54-62%	(55%)	0.96	(54%)	0.77	(62%)	0.51
Pn: Progesterone bound to bovine serum albumin, purchased from Sigma; antigen in competition ELISA	–	–	significantly absorbed	41-52%	(52%)	0.87	(45%)	0.69	(41%)	0.45	significantly absorbed	37-43%	(37%)	1.35	–	0.98	(43%)	0.76
bovine serum albumin [BSA]	–	–	did not absorb	–	–	1.79	–	1.13	–	0.81	did not absorb	–	–	2.24	–	1.53	–	1.26
B1	–	–	did not absorb	–	–	1.67	–	1.13	–	0.68	did not absorb	–	–	2.05	–	1.73	–	1.11
